# Results: PubChem BioAssay (NCI)
#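 Cultured in 96-well plates, cells were exposed to test compound for 48 hours across five concentrations. At the GI50, growth is halved. The concentration for full growth arrest is given as TGI.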
# How the values were obtained:
# Test in all cases: NCI tumour cell line growth inhibition, 48 h
# MDA-MB-435 = system: MDA-MB-435
# RXF 393 renal = system: RXF 393 renal
# U251 CNS = system: U251 CNS
# UACC-62 melanoma = system: UACC-62 melanoma
# OVCAR-4 ovarian = system: OVCAR-4 ovarian
# NCI/ADR-RES ovarian = system: NCI/ADR-RES ovarian
# SNB-19 CNS = system: SNB-19 CNS
# T-47D breast = system: T-47D breast
# HL-60(TB) leukemia = system: HL-60(TB) leukemia
# MOLT-4 leukemia = system: MOLT-4 leukemia
# DU-145 prostate = system: DU-145 prostate
# OVCAR-3 ovarian = system: OVCAR-3 ovarian
# MDA-MB-231 breast = system: MDA-MB-231 breast
# NCI-H226 lung = system: NCI-H226 lung
# 786-0 renal = system: 786-0 renal
# HCC-2998 colon = system: HCC-2998 colon
# OVCAR-8 ovarian = system: OVCAR-8 ovarian
# OVCAR-5 ovarian = system: OVCAR-5 ovarian
# UO-31 renal = system: UO-31 renal
# SK-OV-3 ovarian = system: SK-OV-3 ovarian
# HOP-92 NSCLC = system: HOP-92 NSCLC
# HCT-116 colon = system: HCT-116 colon
# MALME-3M melanoma = system: MALME-3M melanoma
# SK-MEL-28 melanoma = system: SK-MEL-28 melanoma
# EKVX NSCLC = system: EKVX NSCLC
# SN12C renal = system: SN12C renal
# SK-MEL-5 melanoma = system: SK-MEL-5 melanoma
# COLO 205 colon = system: COLO 205 colon
# IGROV1 ovarian = system: IGROV1 ovarian
# SF-268 CNS = system: SF-268 CNS
# KM12 colon = system: KM12 colon
# HS 578T breast = system: HS 578T breast
# M14 melanoma = system: M14 melanoma
# HOP-62 NSCLC = system: HOP-62 NSCLC
# PC-3 prostate = system: PC-3 prostate
# HT29 colon = system: HT29 colon
# A498 renal = system: A498 renal
# LOX IMVI melanoma = system: LOX IMVI melanoma
# A549 NSCLC = system: A549 NSCLC
# UACC-257 melanoma = system: UACC-257 melanoma
# K-562 leukemia = system: K-562 leukemia
# SF-295 CNS = system: SF-295 CNS
# SF-539 CNS = system: SF-539 CNS
# NCI-H23 lung = system: NCI-H23 lung
# SK-MEL-2 melanoma = system: SK-MEL-2 melanoma
# CCRF-CEM leukemia = system: CCRF-CEM leukemia
# SNB-75 CNS = system: SNB-75 CNS
# HCT-15 colon = system: HCT-15 colon
# SW-620 colon = system: SW-620 colon
# BT-549 breast = system: BT-549 breast
# NCI-H522 lung = system: NCI-H522 lung
# TK-10 renal = system: TK-10 renal
# SR leukemia = system: SR leukemia
# RPMI-8226 leukemia = system: RPMI-8226 leukemia
# MCF7 breast = system: MCF7 breast
# NCI-H460 lung = system: NCI-H460 lung
structure (smiles),measurement,setting,value
CN(C)CCCOc1ccc(OCCCN(C)C)c2c1C(=O)c1ccccc1C2=O,GI50,MDA-MB-435,1590 nM
same,TGI,MDA-MB-435,3190 nM
same,GI50,RXF 393 renal,1320 nM
same,TGI,RXF 393 renal,3690 nM
same,GI50,U251 CNS,682 nM
same,TGI,U251 CNS,9020 nM
same,GI50,UACC-62 melanoma,1890 nM
same,TGI,UACC-62 melanoma,4240 nM
same,GI50,OVCAR-4 ovarian,1400 nM
same,TGI,OVCAR-4 ovarian,5180 nM
same,GI50,NCI/ADR-RES ovarian,33600 nM
same,TGI,NCI/ADR-RES ovarian,> 100000 nM
same,GI50,SNB-19 CNS,941 nM
same,TGI,SNB-19 CNS,10000 nM
same,GI50,T-47D breast,1360 nM
same,TGI,T-47D breast,8300 nM
same,GI50,HL-60(TB) leukemia,2140 nM
same,TGI,HL-60(TB) leukemia,6770 nM
same,GI50,MOLT-4 leukemia,378 nM
same,TGI,MOLT-4 leukemia,5990 nM
same,GI50,DU-145 prostate,1140 nM
same,TGI,DU-145 prostate,11800 nM
same,GI50,OVCAR-3 ovarian,1930 nM
same,TGI,OVCAR-3 ovarian,8260 nM
same,GI50,MDA-MB-231 breast,908 nM
same,TGI,MDA-MB-231 breast,4630 nM
same,GI50,NCI-H226 lung,1020 nM
same,TGI,NCI-H226 lung,5540 nM
same,GI50,786-0 renal,1770 nM
same,TGI,786-0 renal,10300 nM
same,GI50,HCC-2998 colon,1260 nM
same,TGI,HCC-2998 colon,6520 nM
same,GI50,OVCAR-8 ovarian,1140 nM
same,TGI,OVCAR-8 ovarian,12000 nM
same,GI50,OVCAR-5 ovarian,962 nM
same,TGI,OVCAR-5 ovarian,5290 nM
same,GI50,UO-31 renal,2640 nM
same,TGI,UO-31 renal,18300 nM
same,GI50,SK-OV-3 ovarian,988 nM
same,TGI,SK-OV-3 ovarian,4740 nM
same,GI50,HOP-92 NSCLC,572 nM
same,TGI,HOP-92 NSCLC,4130 nM
same,GI50,HCT-116 colon,379 nM
same,TGI,HCT-116 colon,10300 nM
same,GI50,MALME-3M melanoma,1110 nM
same,TGI,MALME-3M melanoma,2730 nM
same,GI50,SK-MEL-28 melanoma,2010 nM
same,TGI,SK-MEL-28 melanoma,4450 nM
same,GI50,EKVX NSCLC,2300 nM
same,TGI,EKVX NSCLC,11000 nM
same,GI50,SN12C renal,517 nM
same,TGI,SN12C renal,11900 nM
same,GI50,SK-MEL-5 melanoma,1860 nM
same,TGI,SK-MEL-5 melanoma,3560 nM
same,GI50,COLO 205 colon,379 nM
same,TGI,COLO 205 colon,1820 nM
same,GI50,IGROV1 ovarian,1780 nM
same,TGI,IGROV1 ovarian,14200 nM
same,GI50,SF-268 CNS,1320 nM
same,TGI,SF-268 CNS,7280 nM
same,GI50,KM12 colon,961 nM
same,TGI,KM12 colon,10600 nM
same,GI50,HS 578T breast,2050 nM
same,TGI,HS 578T breast,10500 nM
same,GI50,M14 melanoma,1600 nM
same,TGI,M14 melanoma,3490 nM
same,GI50,HOP-62 NSCLC,634 nM
same,TGI,HOP-62 NSCLC,3540 nM
same,GI50,PC-3 prostate,1480 nM
same,TGI,PC-3 prostate,5150 nM
same,GI50,HT29 colon,382 nM
same,TGI,HT29 colon,3580 nM
same,GI50,A498 renal,1380 nM
same,TGI,A498 renal,3320 nM
same,GI50,LOX IMVI melanoma,810 nM
same,TGI,LOX IMVI melanoma,10200 nM
same,GI50,A549 NSCLC,388 nM
same,TGI,A549 NSCLC,11900 nM
same,GI50,UACC-257 melanoma,2380 nM
same,TGI,UACC-257 melanoma,5420 nM
same,GI50,K-562 leukemia,706 nM
same,TGI,K-562 leukemia,6420 nM
same,GI50,SF-295 CNS,1710 nM
same,TGI,SF-295 CNS,10600 nM
same,GI50,SF-539 CNS,1570 nM
same,TGI,SF-539 CNS,4110 nM
same,GI50,NCI-H23 lung,1020 nM
same,TGI,NCI-H23 lung,4270 nM
same,GI50,SK-MEL-2 melanoma,1260 nM
same,TGI,SK-MEL-2 melanoma,3340 nM
same,GI50,CCRF-CEM leukemia,930 nM
same,TGI,CCRF-CEM leukemia,6950 nM
same,GI50,SNB-75 CNS,1510 nM
same,TGI,SNB-75 CNS,3720 nM
same,GI50,HCT-15 colon,5450 nM
same,TGI,HCT-15 colon,61500 nM
same,GI50,SW-620 colon,532 nM
same,TGI,SW-620 colon,11000 nM
same,GI50,BT-549 breast,1950 nM
same,TGI,BT-549 breast,4970 nM
same,GI50,NCI-H522 lung,381 nM
same,TGI,NCI-H522 lung,2210 nM
same,GI50,TK-10 renal,1710 nM
same,TGI,TK-10 renal,12500 nM
same,GI50,SR leukemia,524 nM
same,TGI,SR leukemia,5050 nM
same,GI50,RPMI-8226 leukemia,2050 nM
same,TGI,RPMI-8226 leukemia,6550 nM
same,GI50,MCF7 breast,388 nM
same,TGI,MCF7 breast,10600 nM
same,GI50,NCI-H460 lung,514 nM
same,TGI,NCI-H460 lung,11600 nM
